Results on 14 compounds are retold here after patent US9834571B2, “Compounds for inhibiting cell proliferation in EGFR-driven cancers” (ARIAD Pharmaceuticals, Inc., priority 2012, dated 2017).

Assay [1] has as its system BaF3 cells expressing wildtype EGFR. Put plainly: Antiproliferative activity (MTT) against control BaF3 cells expressing wildtype EGFR. In kind it is cell-based. Particulars: Mus musculus. The procedure, abridged: (§1)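 Growth inhibition of EGFR-mutant BaF3 cells was assessed with an MTT assay. A BaF3 line expressing wildtype EGFR served as comparator.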
In assay [2] the target is EGFR L858R/T790M (Homo sapiens, UniProt P00533, L858R/T790M). Description: Kinase inhibitory activity against EGFR bearing the L858R/T790M double mutation. It counts as biochemical. Particulars: 10 μM ATP, read-out: IC50 for kinase inhibition, EGFR L858R T790M. The method in brief: (§2)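 Each assay used 10 μM ATP. Inhibitors were tested as 10-point curves, highest concentration 3 μM, no replicates.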
Sequence of EGFR L858R/T790M (P00533 25-1210 T790M/L858R): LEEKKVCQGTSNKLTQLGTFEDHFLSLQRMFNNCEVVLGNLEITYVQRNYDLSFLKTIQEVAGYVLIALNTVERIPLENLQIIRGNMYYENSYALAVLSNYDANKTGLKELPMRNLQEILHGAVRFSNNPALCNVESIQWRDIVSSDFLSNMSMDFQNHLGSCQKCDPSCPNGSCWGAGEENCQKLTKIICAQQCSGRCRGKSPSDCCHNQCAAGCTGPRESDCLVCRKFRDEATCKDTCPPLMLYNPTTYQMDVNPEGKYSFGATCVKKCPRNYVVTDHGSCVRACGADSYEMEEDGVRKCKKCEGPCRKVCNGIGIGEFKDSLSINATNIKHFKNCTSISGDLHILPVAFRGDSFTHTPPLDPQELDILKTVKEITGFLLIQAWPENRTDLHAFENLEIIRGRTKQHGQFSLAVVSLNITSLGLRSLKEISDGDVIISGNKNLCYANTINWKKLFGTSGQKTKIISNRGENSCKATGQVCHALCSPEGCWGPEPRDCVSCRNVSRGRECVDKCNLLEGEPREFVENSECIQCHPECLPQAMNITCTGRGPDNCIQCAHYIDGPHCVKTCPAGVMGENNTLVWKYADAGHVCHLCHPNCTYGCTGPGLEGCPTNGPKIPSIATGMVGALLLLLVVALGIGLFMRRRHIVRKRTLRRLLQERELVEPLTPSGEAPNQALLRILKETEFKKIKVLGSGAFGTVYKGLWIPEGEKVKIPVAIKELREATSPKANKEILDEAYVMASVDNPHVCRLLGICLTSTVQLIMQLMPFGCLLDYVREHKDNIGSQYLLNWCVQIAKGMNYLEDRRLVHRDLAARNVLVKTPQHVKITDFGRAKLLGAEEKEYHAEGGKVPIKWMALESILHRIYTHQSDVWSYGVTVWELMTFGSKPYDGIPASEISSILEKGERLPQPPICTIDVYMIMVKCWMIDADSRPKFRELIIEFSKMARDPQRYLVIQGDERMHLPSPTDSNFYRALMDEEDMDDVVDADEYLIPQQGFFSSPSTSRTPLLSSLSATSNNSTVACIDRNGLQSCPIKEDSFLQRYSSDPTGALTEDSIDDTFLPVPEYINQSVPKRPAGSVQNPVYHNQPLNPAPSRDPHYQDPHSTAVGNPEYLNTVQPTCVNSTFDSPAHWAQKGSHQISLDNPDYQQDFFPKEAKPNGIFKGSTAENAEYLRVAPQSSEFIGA

Assay [3] deals with human EGFR (native sequence) (Homo sapiens, UniProt P00533). Description: Kinase inhibitory activity against human EGFR (native sequence). In kind it is biochemical. Particulars: 10 μM ATP, read-out: IC50 for kinase inhibition, EGFR. The method in brief:
as §2

The target in assay [4] is T1, BaF3 cells expressing the target EGFR mutations (Homo sapiens, UniProt P00533, T790M/L858R, cells depend on it).
T1 construct: IC50, BAF3 EGFR L858R-T790M PURO POOL; other: BAF3 EGFR L858R-T790M PURO POOL cells, MTT; IC50, BAF3 EGFR L858R-T790M PURO POOL; other: BAF3 EGFR L858R-T790M PURO POOL cells; MTT
T1 sequence (P00533 whole entry T790M/L858R): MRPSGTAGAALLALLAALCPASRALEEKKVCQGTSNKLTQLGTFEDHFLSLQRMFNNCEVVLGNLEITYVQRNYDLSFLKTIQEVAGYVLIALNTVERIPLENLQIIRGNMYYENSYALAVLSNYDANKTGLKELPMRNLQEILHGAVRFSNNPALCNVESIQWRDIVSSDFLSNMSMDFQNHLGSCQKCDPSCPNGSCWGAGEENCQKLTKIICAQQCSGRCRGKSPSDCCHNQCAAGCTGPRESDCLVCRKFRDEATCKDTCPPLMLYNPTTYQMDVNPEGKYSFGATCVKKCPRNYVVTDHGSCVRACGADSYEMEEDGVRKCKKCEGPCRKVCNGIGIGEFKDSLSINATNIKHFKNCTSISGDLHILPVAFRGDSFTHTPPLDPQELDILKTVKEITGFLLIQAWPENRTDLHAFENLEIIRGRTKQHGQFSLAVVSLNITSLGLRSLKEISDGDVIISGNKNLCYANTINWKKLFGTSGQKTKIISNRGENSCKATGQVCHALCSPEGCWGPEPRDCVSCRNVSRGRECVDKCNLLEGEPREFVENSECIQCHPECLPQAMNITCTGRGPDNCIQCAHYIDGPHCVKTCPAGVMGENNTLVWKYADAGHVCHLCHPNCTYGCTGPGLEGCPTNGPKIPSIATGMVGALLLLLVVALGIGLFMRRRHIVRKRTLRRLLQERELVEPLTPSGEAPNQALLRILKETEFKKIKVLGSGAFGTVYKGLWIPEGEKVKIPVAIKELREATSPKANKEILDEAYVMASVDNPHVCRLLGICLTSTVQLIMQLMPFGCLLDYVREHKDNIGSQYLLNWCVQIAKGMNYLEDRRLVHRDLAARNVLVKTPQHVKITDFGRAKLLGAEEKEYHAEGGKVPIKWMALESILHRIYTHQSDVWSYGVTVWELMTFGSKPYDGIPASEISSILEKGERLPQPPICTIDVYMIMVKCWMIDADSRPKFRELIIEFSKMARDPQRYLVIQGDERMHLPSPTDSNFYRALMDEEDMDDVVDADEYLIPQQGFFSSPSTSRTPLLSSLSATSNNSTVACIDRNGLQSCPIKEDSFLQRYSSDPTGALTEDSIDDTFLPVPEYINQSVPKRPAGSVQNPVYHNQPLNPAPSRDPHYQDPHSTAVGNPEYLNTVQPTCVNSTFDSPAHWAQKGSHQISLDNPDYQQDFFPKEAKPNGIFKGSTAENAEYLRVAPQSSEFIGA
Description: Antiproliferative activity (MTT) against BaF3 cells expressing the target EGFR mutations. The settings on record: BAF3 EGFR L858R-T790M PURO POOL cells, read-out: IC50, BAF3 EGFR L858R-T790M PURO POOL. It counts as cell-based. The procedure, abridged:
as §1

Assay [5] addresses T2, BaF3 cells expressing the target EGFR mutations (Homo sapiens, UniProt P00533, T790M, cells depend on it, form not given).
T2 construct: IC50, BAF3 EGFR DEL T790M PURO POOL; other: BAF3 EGFR DEL T790M PURO POOL cells, MTT; other: BAF3 EGFR DEL T790M PURO POOL cells; MTT
Described as above. In kind it is cell-based. The settings on record: BAF3 EGFR DEL T790M PURO POOL cells, read-out: IC50, BAF3 EGFR DEL T790M PURO POOL. The procedure, abridged:
as §1

The target in assay [6] is EGFR L858R (Homo sapiens, UniProt P00533, L858R). Put plainly: Kinase inhibitory activity against EGFR bearing the L858R mutation. In kind it is biochemical. The settings on record: 10 μM ATP, read-out: IC50 for kinase inhibition, EGFR L858R. The method in brief: as §2
The mark [7] stands for this setting: 10 pt curves, 3 μM top concentration.
[8] abbreviates: EGFR L858R/T790M double mutation.

Where two headings read alike, the source gives them in different places.

T2 sequence (P00533 with tags, fused parts or gaps DEL746-750/T790M, form open): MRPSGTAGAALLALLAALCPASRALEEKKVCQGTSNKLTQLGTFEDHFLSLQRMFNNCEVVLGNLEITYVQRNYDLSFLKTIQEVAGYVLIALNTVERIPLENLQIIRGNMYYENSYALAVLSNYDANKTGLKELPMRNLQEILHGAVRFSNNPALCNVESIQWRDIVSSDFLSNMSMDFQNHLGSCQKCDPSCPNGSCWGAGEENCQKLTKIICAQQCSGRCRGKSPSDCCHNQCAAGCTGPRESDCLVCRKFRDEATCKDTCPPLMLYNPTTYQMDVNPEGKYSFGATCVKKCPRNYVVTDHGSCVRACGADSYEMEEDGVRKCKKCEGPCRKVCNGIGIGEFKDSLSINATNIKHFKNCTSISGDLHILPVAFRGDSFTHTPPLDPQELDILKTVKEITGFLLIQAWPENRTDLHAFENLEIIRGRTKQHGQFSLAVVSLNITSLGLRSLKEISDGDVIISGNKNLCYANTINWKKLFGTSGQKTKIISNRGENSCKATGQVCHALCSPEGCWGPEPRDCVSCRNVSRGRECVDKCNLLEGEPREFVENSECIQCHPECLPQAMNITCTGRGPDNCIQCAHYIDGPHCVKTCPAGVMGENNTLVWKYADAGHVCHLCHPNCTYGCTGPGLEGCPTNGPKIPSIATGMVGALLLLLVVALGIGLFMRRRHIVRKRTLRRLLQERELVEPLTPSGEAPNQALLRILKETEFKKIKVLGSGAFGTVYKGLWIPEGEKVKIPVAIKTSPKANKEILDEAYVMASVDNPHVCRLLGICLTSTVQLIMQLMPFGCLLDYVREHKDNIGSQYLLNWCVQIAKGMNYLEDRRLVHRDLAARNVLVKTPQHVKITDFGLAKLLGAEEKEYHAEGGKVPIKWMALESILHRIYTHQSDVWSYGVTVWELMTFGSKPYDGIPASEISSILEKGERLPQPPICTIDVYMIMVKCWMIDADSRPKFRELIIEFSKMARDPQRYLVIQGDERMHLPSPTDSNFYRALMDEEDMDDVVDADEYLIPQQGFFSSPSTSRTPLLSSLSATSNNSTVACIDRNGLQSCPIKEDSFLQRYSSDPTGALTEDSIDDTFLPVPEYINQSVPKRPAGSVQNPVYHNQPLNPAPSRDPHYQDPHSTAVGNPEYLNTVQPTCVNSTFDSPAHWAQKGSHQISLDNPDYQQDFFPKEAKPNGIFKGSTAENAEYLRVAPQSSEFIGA
Sequence of human EGFR (native sequence) (P00533 25-1210): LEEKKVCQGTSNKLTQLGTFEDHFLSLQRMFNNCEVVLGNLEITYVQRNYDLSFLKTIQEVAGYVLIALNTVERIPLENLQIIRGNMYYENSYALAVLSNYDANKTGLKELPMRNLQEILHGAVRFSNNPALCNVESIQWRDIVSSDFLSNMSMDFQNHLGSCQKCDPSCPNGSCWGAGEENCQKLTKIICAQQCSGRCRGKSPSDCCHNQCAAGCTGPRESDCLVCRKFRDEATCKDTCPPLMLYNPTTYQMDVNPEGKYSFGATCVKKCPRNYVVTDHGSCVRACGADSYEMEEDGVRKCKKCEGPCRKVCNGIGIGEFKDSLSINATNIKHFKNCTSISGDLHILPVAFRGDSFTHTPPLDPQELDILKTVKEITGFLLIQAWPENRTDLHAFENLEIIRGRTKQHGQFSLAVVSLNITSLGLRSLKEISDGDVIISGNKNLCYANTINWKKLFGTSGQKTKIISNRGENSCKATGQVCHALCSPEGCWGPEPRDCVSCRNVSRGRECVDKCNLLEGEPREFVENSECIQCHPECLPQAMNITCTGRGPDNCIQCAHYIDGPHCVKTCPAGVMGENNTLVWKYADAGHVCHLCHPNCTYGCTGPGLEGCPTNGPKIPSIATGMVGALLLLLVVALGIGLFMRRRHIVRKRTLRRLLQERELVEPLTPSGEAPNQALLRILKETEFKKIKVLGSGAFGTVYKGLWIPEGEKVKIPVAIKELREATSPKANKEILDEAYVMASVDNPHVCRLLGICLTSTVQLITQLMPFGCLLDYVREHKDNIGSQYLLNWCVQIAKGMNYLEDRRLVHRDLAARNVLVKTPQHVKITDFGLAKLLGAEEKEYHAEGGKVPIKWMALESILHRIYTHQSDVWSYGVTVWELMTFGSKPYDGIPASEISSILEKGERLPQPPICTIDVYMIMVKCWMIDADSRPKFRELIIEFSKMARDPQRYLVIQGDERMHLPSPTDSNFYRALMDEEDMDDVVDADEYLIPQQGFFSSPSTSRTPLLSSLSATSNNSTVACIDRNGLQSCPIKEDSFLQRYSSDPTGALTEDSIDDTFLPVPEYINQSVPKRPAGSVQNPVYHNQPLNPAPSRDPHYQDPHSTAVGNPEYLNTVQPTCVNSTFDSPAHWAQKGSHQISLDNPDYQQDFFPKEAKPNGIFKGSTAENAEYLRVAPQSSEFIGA

By IC50 is commonly meant the concentration that inhibits the measured activity by half. On to `C=CC(=O)Nc1cc(Nc2ncc(Cl)c(Nc3ccccc3P(C)(C)=O)n2)c(OC)cc1C#CCN(C)C` [Example 124, N-(5-((5-chloro-4-((2-(dimethylphosphoryl)phenyl)amino)pyrimidin-2-yl)amino)-2-(3-(dimethylamino)prop-1-yn-1-yl)-4-methoxyphenyl)acrylamide], for which the IC50 in assay [1] (BAF3 parental cells) was at least 250 nM; in assay [2] (setting [7]) it was under 50 nM; in assay [3] (setting [7]) it was under 50 nM; in assay [6] (setting [7]), under 50 nM. Further, the GI50 in assay [4] and in assay [5] was under 50 nM in each case.

Consider `C=CC(=O)Nc1cc(Nc2ncc(Cl)c(Nc3ccccc3P(C)(C)=O)n2)c(OC)cc1C#CCN(C(C)C)C(C)C` [Example 158, N-(5-((5-chloro-4-((2-(dimethylphosphoryl)phenyl)amino)pyrimidin-2-yl)amino)-2-(3-(diisopropylamino)prop-1-yn-1-yl)-4-methoxyphenyl)acrylamide], for which the concentration for half-maximal inhibition (IC50) in assay [1] (BAF3 parental cells) was at least 250 nM; in assay [2] (setting [7]), under 50 nM; in assay [3] (setting [7]) it was under 50 nM; in assay [6] (setting [7]) it was under 50 nM. Also, the GI50 in assay [4] and in assay [5] was under 50 nM each time.

For `C=CC(=O)Nc1cc(Nc2ncc(Cl)c(Nc3ccccc3P(C)(C)=O)n2)c(OC)cc1C#CC(C)(C)N1CCCC1` [Example 116, N-(5-((5-chloro-4-((2-(dimethylphosphoryl)phenyl)amino)pyrimidin-2-yl)amino)-4-methoxy-2-(3-methyl-3-(pyrrolidin-1-yl)but-1-yn-1-yl)phenyl)acrylamide], the IC50 was at least 250 nM in assay [1] (BAF3 parental cells), under 50 nM in assay [2] (setting [7]), 50 to 100 nM in assay [3] (setting [7]) and under 50 nM in assay [6] (setting [7]). The GI50 in assay [4] and in assay [5] was under 50 nM in each case.

Turning to `C=CC(=O)Nc1cc(Nc2ncc(Cl)c(Nc3ccccc3P(C)(C)=O)n2)c(OC)cc1C#CC(C)(C)N` [Example 65, N-(2-(3-amino-3-methylbut-1-yn-1-yl)-5-((5-chloro-4-((2-(dimethylphosphoryl)phenyl)amino)pyrimidin-2-yl)amino)-4-methoxyphenyl)acrylamide], the 50% inhibitory concentration (IC50) in assay [1] (BAF3 PARENTAL cells (control)) was at least 250 nM; in assay [2] (setting [8]) it was under 50 nM; in assay [3] (human EGFR native sequence), under 50 nM; in assay [6] (EGFR L858R) it was under 50 nM. Moreover, the GI50 in assay [4] and in assay [5] was under 50 nM throughout.

`C=CC(=O)Nc1cc(Nc2ncc(Cl)c(Nc3ccccc3P(C)(C)=O)n2)c(CC)cc1C#CCN(C)C` [Example 152, N-(5-((5-chloro-4-((2-(dimethylphosphoryl)phenyl)amino)pyrimidin-2-yl)amino)-2-(3-(dimethylamino)prop-1-yn-1-yl)-4-ethylphenyl)acrylamide]: the concentration for half-maximal inhibition (IC50) is at least 250 nM in assay [1] (BAF3 parental cells), under 50 nM in assay [2] (setting [7]), under 50 nM in assay [3] (setting [7]) and under 50 nM in assay [6] (setting [7]). The GI50 in assay [4] and in assay [5] was under 50 nM in each case.

With `C=CC(=O)Nc1ccc(OC)c(Nc2ncc(Cl)c(Nc3ccc(OCC4CCOCC4)cc3P(C)(C)=O)n2)c1` [Example 100, N-(3-((5-chloro-4-((2-(dimethylphosphoryl)-4-((tetrahydro-2H-pyran-4-yl)methoxy)phenyl)amino)pyrimidin-2-yl)amino)-4-methoxyphenyl)acrylamide], the concentration for half-maximal inhibition (IC50) was at least 250 nM in assay [1] (BAF3 PARENTAL cells (control)), under 50 nM in assay [2] (setting [8]), 50 to 100 nM in assay [3] (human EGFR native sequence) and under 50 nM in assay [6] (EGFR L858R). Besides, the GI50 in assay [4] and in assay [5] was under 50 nM in each case.

For `COc1cc(N2CCOCC2)c(NC(=O)C#CCCN(C)C)cc1Nc1ncc(Cl)c(Nc2ccccc2P(C)(C)=O)n1` [Example 114, N-(5-((5-chloro-4-((2-(dimethylphosphoryl)phenyl)amino)pyrimidin-2-yl)amino)-4-methoxy-2-morpholinophenyl)-5-(dimethylamino)pent-2-ynamide], the half-inhibitory concentration (IC50) was at least 250 nM in assay [1] (BAF3 parental cells), under 50 nM in assay [2] (setting [7]), under 50 nM in assay [3] (setting [7]) and under 50 nM in assay [6] (setting [7]). Besides, the GI50 in assay [4] and in assay [5] was under 50 nM throughout.

`C=C(CN1CCN(S(C)(=O)=O)CC1)C(=O)Nc1ccc(OC)c(Nc2ncc(Cl)c(Nc3ccccc3P(C)(C)=O)n2)c1` [Example 44, N-(3-((5-chloro-4-((2-(dimethylphosphoryl)phenyl)amino)pyrimidin-2-yl)amino)-4-methoxyphenyl)-2-((4-(methylsulfonyl)piperazin-1-yl)methyl)acrylamide]: the 50% inhibitory concentration (IC50) is at least 250 nM in assay [1] (BAF3 PARENTAL cells (control)), under 50 nM in assay [2] (setting [8]), under 50 nM in assay [3] (human EGFR native sequence) and under 50 nM in assay [6] (EGFR L858R). Also, the GI50 in assay [4] and in assay [5] was under 50 nM throughout.

`C=CC(=O)Nc1cc(Nc2ncc(Cl)c(Nc3ccccc3P(C)(C)=O)n2)c(OC)cc1C#CCN(CC)CC` [Example 96, N-(5-((5-chloro-4-((2-(dimethylphosphoryl)phenyl)amino)pyrimidin-2-yl)amino)-2-(3-(diethylamino)prop-1-yn-1-yl)-4-methoxyphenyl)acrylamide]: the half-inhibitory concentration (IC50) in assay [1] (BAF3 PARENTAL cells (control)) is at least 250 nM; in assay [2] (setting [8]), under 50 nM; in assay [3] (human EGFR native sequence) it was at least 250 nM; in assay [6] (EGFR L858R), under 50 nM. In addition, the GI50 in assay [4] and in assay [5] was under 50 nM each time.

On to `C=CC(=O)Nc1cc(Nc2ncc(Cl)c(Nc3ccccc3P(C)(C)=O)n2)c(OC)cc1N1CCN(C2CCN(C)CC2)CC1` [Example 27, N-(5-((5-chloro-4-((2-(dimethylphosphoryl)phenyl)amino)pyrimidin-2-yl)amino)-4-methoxy-2-(4-(1-methylpiperidin-4-yl)piperazin-1-yl)phenyl)acrylamide], for which the half-maximal inhibitory concentration (IC50) in assay [1] (BAF3 PARENTAL cells (control)) is at least 250 nM; in assay [2] (setting [8]), under 50 nM; in assay [3] (human EGFR native sequence), under 50 nM; in assay [6] (EGFR L858R), under 50 nM. In addition, the GI50 was 101 to 250 nM in assay [4] and 50 to 100 nM in assay [5].

Take `C=CC(=O)Nc1cc(Nc2ncc(Cl)c(Nc3ccccc3P(C)(C)=O)n2)c(C)cc1C#CCN(C)C` [Example 151, N-(5-((5-chloro-4-((2-(dimethylphosphoryl)phenyl)amino)pyrimidin-2-yl)amino)-2-(3-(dimethylamino)prop-1-yn-1-yl)-4-methylphenyl)acrylamide]: the IC50 is at least 250 nM in assay [1] (BAF3 parental cells), under 50 nM in assay [2] (setting [7]), under 50 nM in assay [3] (setting [7]) and under 50 nM in assay [6] (setting [7]). Also, the GI50 in assay [4] and in assay [5] was under 50 nM in each case.

Consider `C=CC(=O)Nc1cc(Nc2ncc(Cl)c(Nc3ccccc3P(C)(C)=O)n2)c(OC)cc1N1CCC(O)C1` (stereo not drawn) [Example 32, N-(5-((5-chloro-4-((2-(dimethylphosphoryl)phenyl)amino)pyrimidin-2-yl)amino)-2-(3-hydroxypyrrolidin-1-yl)-4-methoxyphenyl)acrylamide], for which the concentration for half-maximal inhibition (IC50) in assay [1] (BAF3 PARENTAL cells (control)) is at least 250 nM; in assay [2] (setting [8]) it was under 50 nM; in assay [3] (human EGFR native sequence), under 50 nM; in assay [6] (EGFR L858R) it was under 50 nM. The GI50 lay in the range of 101 to 250 nM in assay [4] and 50 to 100 nM in assay [5].

Consider `C=CC(=O)Nc1cc(Nc2ncc(Cl)c(Nc3ccccc3P(C)(C)=O)n2)c(OC)cc1N(C)CCN(C)CCF` [Example 67, N-(5-((5-chloro-4-((2-(dimethylphosphoryl)phenyl)amino)pyrimidin-2-yl)amino)-2-((2-((2-fluoroethyl)(methyl)amino)ethyl)(methyl)amino)-4-methoxyphenyl)acrylamide], for which the 50% inhibitory concentration (IC50) in assay [1] (BAF3 PARENTAL cells (control)) was at least 250 nM; in assay [2] (setting [8]), under 50 nM; in assay [3] (human EGFR native sequence), under 50 nM; in assay [6] (EGFR L858R) it was under 50 nM. Also, the GI50 in assay [4] and in assay [5] was under 50 nM in each case.

As for `COCC1CCCN1CCC#CC(=O)Nc1cc(Nc2ncc(Cl)c(Nc3ccccc3P(C)(C)=O)n2)c(OC)cc1N1CCOCC1` (stereo not drawn) [Example 122, N-(5-((5-chloro-4-((2-(dimethylphosphoryl)phenyl)amino)pyrimidin-2-yl)amino)-4-methoxy-2-morpholinophenyl)-5-(2-(methoxymethyl)pyrrolidin-1-yl)pent-2-ynamide], the IC50 was at least 250 nM in assay [1] (BAF3 parental cells), under 50 nM in assay [2] (setting [7]), under 50 nM in assay [3] (setting [7]) and under 50 nM in assay [6] (setting [7]). Also, the GI50 in assay [4] and in assay [5] was under 50 nM each time.
